Results on 23 compounds are retold here after patent US8853196B2, “Aminochromane, aminothiochromane and amino-1,2,3,4-tetrahydroquinoline derivatives, pharmaceutical compositions containing them, and their use in therapy” (AbbVie Deutschland GmbH & Co. KG, priority 2011, dated 2014).

Structures are written as SMILES. Counter-ions that a name gives are not always drawn.

This assay deals with T1, human GlyT1c transporter (Homo sapiens, UniProt P48067).
T1 construct: expressed in transfected cells; host or cells: CHO cells (recombinant; membranes)
T1 sequence (P48067 1-706): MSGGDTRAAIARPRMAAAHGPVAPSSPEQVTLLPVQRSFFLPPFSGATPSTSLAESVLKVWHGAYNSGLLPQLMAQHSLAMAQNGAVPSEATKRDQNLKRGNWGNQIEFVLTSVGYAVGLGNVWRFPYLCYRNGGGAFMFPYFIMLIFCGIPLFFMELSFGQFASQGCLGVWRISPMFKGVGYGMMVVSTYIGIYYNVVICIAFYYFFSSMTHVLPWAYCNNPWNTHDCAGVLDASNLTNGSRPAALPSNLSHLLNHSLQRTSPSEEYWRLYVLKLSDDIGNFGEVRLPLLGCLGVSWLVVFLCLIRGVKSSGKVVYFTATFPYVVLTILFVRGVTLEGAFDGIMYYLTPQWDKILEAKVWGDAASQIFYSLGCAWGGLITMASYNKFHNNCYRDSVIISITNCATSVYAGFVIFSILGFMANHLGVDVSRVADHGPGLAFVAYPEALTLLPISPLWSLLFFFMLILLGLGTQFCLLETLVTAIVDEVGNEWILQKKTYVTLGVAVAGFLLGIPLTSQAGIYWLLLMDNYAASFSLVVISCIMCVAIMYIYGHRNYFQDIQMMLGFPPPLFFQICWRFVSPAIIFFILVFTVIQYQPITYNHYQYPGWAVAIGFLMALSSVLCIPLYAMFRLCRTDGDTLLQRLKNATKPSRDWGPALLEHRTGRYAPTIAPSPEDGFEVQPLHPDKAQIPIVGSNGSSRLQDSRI
As to the kind of experiment: Radioligand binding assay using recombinant CHO cell membranes expressing human GlyT1. Conditions: values given as upper bounds, read-out: radioligand binding Kiapp. The procedure:
2. Radioligand Binding Assays Using Recombinant CHO Cell Membranes Expressing Human GlyT1:
Radioligand binding to human GlyT1c transporter-expressing membranes was determined as described in Mezler et al., Molecular Pharmacology 74:1705-1715, 2008.
Turning to `Cn1cc(S(=O)(=O)NCCOc2ccc3c(c2)[C@H](Cc2ccccc2)[C@H](N2CCC2)CO3)cn1` (relative stereo) [Example 16, cis-1-Methyl-1H-pyrazole-4-sulfonic acid [2-(3-azetidin-1-yl-4-benzyl-chroman-6-yloxy)-ethyl]-amide], the Ki was no more than 10 nM.
As to `CN[C@H]1[C@H](Cc2ccccc2)c2cc(OCCNS(=O)(=O)CC3CC3)ccc2OC1(C)C` (relative stereo) [Example 77, trans-N-[2-(-4-Benzyl-2,2-dimethyl-3-methylamino-chroman-6-yloxy)-ethyl]-C-cyclopropyl-methanesulfonamide], the Ki was no more than 1000 nM.
On to `CN[C@@H]1COc2ccc(OCCNS(=O)(=O)CC3CC3)cc2[C@@H]1Cc1ccccc1` (relative stereo) [Example 4a, cis-N-(2-{[-4-Benzyl-3-(methylamino)-3,4-dihydro-2H-chromen-6-yl]oxy}ethyl)-1-cyclopropylmethanesulfonamide], for which the Ki is no more than 10 nM.
As for `CN[C@@H]1COc2ccc(OCCNS(=O)(=O)c3cnn(C)c3)cc2[C@@H]1Cc1ccccc1` (relative stereo) [Example 1a, cis-N-(2-{[4-Benzyl-3-(methylamino)-3,4-dihydro-2H-chromen-6-yl]oxy}ethyl)-1-methyl-1H-pyrazole-4-sulfonamide hydrochloride], the figure is no more than 10 nM; as for `Cc1csc(S(=O)(=O)NCc2ccc3c(c2)C(Cc2ccccc2)C(N)CO3)c1` (centres unmarked) [Example 56, 4-Methyl-thiophene-2-sulfonic acid (3-amino-4-benzyl-chroman-6-ylmethyl)-amide 2,2,2-trifluoroacetate], no more than 100 nM; as for `Cc1ccc(S(=O)(=O)NCc2ccc3c(c2)C(Cc2ccccc2)C(N)CO3)o1` (centres unmarked) [Example 52, 5-Methyl-furan-2-sulfonic acid (3-amino-4-benzyl-chroman-6-ylmethyl)-amide 2,2,2-trifluoroacetate], no more than 1000 nM.
On to `O=S(=O)(CC1CC1)NCc1ccc2c(c1)C(Cc1ccccc1)C(N1CCC1)CO2` (centres unmarked) [Example 21, N-(3-Azetidin-1-yl-4-benzyl-chroman-6-ylmethyl)-C-cyclopropyl-methane-sulfonamide; trifluoro-acetic acid salt], for which the Ki was no more than 100 nM.
Regarding `O=S(=O)(CC1CC1)NCCOc1ccc2c(c1)[C@H](Cc1ccccc1)[C@H](N1CCC1)CO2` (relative stereo) [Example 11, cis-N-[2-(3-Azetidin-1-yl-4-benzyl-chroman-6-yloxy)-ethyl]-C-cyclopropyl-methanesulfonamide], the Ki was no more than 1000 nM.
`NC1COc2ccc(CNS(=O)(=O)c3ccoc3)cc2C1Cc1ccccc1` (centres unmarked) [Example 54, Furan-3-sulfonic acid (3-amino-4-benzyl-chroman-6-ylmethyl)-amide 2,2,2-trifluoroacetate]: the Ki was no more than 100 nM.
Consider `CN[C@@H]1COc2ccc(CNS(C)(=O)=O)cc2[C@H]1Cc1ccccc1` (relative stereo) [Example 61, trans-N-(-4-Benzyl-3-methylamino-chroman-6-ylmethyl)-methanesulfonamide], for which the Ki is no more than 1000 nM.
For the compound `CN[C@@H]1COc2ccc(CNS(=O)(=O)C3CCC3)cc2[C@H]1Cc1ccccc1` (relative stereo) [Example 26, trans-Cyclobutanesulfonic acid (4-benzyl-3-methylamino-chroman-6-ylmethyl)-amide], the Ki is no more than 1000 nM.
Turning to `Cn1cnc(S(=O)(=O)NCc2ccc3c(c2)[C@@H](Cc2ccccc2)[C@@H](NCC2CCCCC2)CO3)c1` (relative stereo) [Example 22, cis-1-Methyl-1H-imidazole-4-sulfonic acid [4-benzyl-3-(cyclohexylmethyl-amino)-chroman-6-lmethyl]-amide; trifluoro-acetic acid salt], the Ki was no more than 10 nM.
For the compound `CCS(=O)(=O)NCCOc1cc2c(cc1F)OC[C@@H](NC)[C@H]2Cc1ccccc1` (relative stereo) [Example 29, cis-Ethanesulfonic acid [2-(-4-benzyl-7-fluoro-3-methylamino-chroman-6-yloxy)-ethyl]-amide], the Ki is no more than 100 nM.
Turning to `NC1COc2ccc(CNS(=O)(=O)N3CCOCC3)cc2C1Cc1ccccc1` (centres unmarked) [Example 44, Morpholine-4-sulfonic acid (3-amino-4-benzyl-chroman-6-ylmethyl)-amide 2,2,2-trifluoroacetate], the Ki was no more than 10000 nM.
Consider `CCCS(=O)(=O)NCCOc1ccc2c(c1)[C@H](Cc1ccccc1)[C@H](NC)C(C)(C)O2` (relative stereo) [Example 74, cis-Propane-1-sulfonic acid [2-(-4-benzyl-2,2-dimethyl-3-methylamino-chroman-6-yloxy)-ethyl]-amide], for which the Ki was no more than 1000 nM.
As to `N[C@@H]1COc2ccc(CNS(=O)(=O)CC3CC3)cc2[C@H]1Cc1ccccc1` (relative stereo) [Example 68, trans-N-(-3-Amino-4-benzyl-chroman-6-ylmethyl)-C-cyclopropyl-methanesulfonamide], the Ki is no more than 100 nM.
On to `CCS(=O)(=O)NCc1ccc2c(c1)[C@H](Cc1ccccc1)[C@H](NC)CO2` (relative stereo) [Example 9a, cis-N-{[4-Benzyl-3-(methylamino)-3,4-dihydro-2H-chromen-6-yl]methyl}ethanesulfonamide], for which the Ki was no more than 100 nM.
As for `CCS(=O)(=O)NCCOc1ccc2c(c1)[C@@H](Cc1ccccc1)[C@H](NC)C(C)(C)O2` (relative stereo) [Example 73, trans-Ethanesulfonic acid [2-(-4-benzyl-2,2-dimethyl-3-methylamino-chroman-6-yloxy)-ethyl]-amide], the figure is no more than 1000 nM; as for `N[C@@H]1COc2ccc(CNS(=O)(=O)C3CCC3)cc2[C@@H]1Cc1ccccc1` (relative stereo) [Example 69, cis-Cyclobutanesulfonic acid (-3-amino-4-benzyl-chroman-6-ylmethyl)-amide], no more than 100 nM; as for `CCn1cc(S(=O)(=O)NCc2ccc3c(c2)C(Cc2ccccc2)C(N)CO3)cn1` (centres unmarked) [Example 57, 1-Ethyl-1H-pyrazole-4-sulfonic acid (3-amino-4-benzyl-chroman-6-ylmethyl)-amide 2,2,2-trifluoroacetate], no more than 1000 nM.
`Cn1cnc(S(=O)(=O)NCc2ccc3c(c2)[C@H](Cc2ccccc2)[C@H](NCCC2CC2)CO3)c1` (relative stereo) [Example 33, cis-N-((-4-benzyl-3-((2-cyclopropylethyl)amino)chroman-6-yl)methyl)-1-methyl-1H-imidazole-4-sulfonamide 2,2,2-trifluoroacetate]: the Ki was no more than 10 nM.
Regarding `CN[C@@H]1COc2ccc(OCCNS(=O)(=O)c3cn(C)cn3)cc2[C@H]1Cc1ccccc1` (relative stereo) [Example 2b, trans-N-(2-{[-4-benzyl-3-(methylamino)-3,4-dihydro-2H-chromen-6-yl]oxy}ethyl)-1-methyl-1H-imidazole-4-sulfonamide], the Ki is no more than 10 nM.
With `CN[C@@H]1COc2ccc(CNS(=O)(=O)c3cn(C)cn3)cc2[C@H]1Cc1ccccc1` (relative stereo) [Example 5b, trans-1-Methyl-1H-imidazole-4-sulfonic acid (4-benzyl-3-methylamino-chroman-6-ylmethyl)-amide], the Ki is no more than 10 nM.
